Test results published in patent US9302999B2, “Substituted triazoles as herbicides” (E. I. DU PONT DE NEMOURS AND COMPANY, priority 2012, dated 2016).

Assays:
Type in all cases: in vivo
[1] = test system: winter wheat (Triticum aestivum); assay: Test C pre-/postemergence: winter wheat
Procedure, shortened: (§1)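 Visual injury scored 0–100 (100 = complete control) against untreated controls after 13–15 greenhouse days. Surfactant-containing solvent formulations applied either to soil after sowing (loam/sand) or over 1- to 4-leaf plants, 2–18 cm tall.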

[2] = test system: large crabgrass (Digitaria sanguinalis); assay: Test C pre-/postemergence: large crabgrass
Procedure, shortened: as §1

[3] = test system: johnsongrass (Sorghum halepense); assay: Test C pre-/postemergence: johnsongrass
Procedure, shortened: as §1

[4] = test system: corn (Zea mays); assay: Test A pre-/postemergence: corn; conditions: for Corn plant response rating: Postemergence; for Plant response rating, Corn: Preemergence
Procedure, shortened: (§2)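 Plants in loam–sand blend were treated with test chemicals in non-phytotoxic solvent with surfactant, either as preemergence directed soil spray or postemergence at 2–10 cm, one- to two-leaf stage. After about ten days in greenhouse, injury was rated visually against untreated controls on a 0–100 scale (100 = complete control).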

[5] = test system: nutsedge, yellow (yellow nutsedge, Cyperus esculentus); assay: Test C pre-/postemergence: nutsedge, yellow
Procedure, shortened: as §1

[6] = test system: barnyardgrass (Echinochloa crus-galli); assay: Test A pre-/postemergence: barnyardgrass; conditions: for Barnyardgrass plant response rating: Postemergence; for Plant response rating, Barnyardgrass: Preemergence
Procedure, shortened: as §2

[7] = test system: ryegrass, Italian (Italian ryegrass, Lolium multiflorum); assay: Test C pre-/postemergence: ryegrass, Italian
Procedure, shortened: as §1

[8] = test system: galium (catchweed bedstraw, Galium aparine); assay: Test C pre-/postemergence: galium
Procedure, shortened: as §1

[9] = test system: morningglory (Ipomoea spp.); assay: Test A pre-/postemergence: morningglory; conditions: for Morningglory plant response rating: visual rating on 0 to 100 scale (0 no effect, 100 complete control), approximately ten days
Procedure, shortened: as §2

[10] = test system: pigweed (Amaranthus retroflexus); assay: Test C pre-/postemergence: pigweed
Procedure, shortened: as §1

[11] = test system: kochia (Kochia scoparia); assay: Test C pre-/postemergence: kochia
Procedure, shortened: as §1

[12] = Postemergence, 31 g ai/ha, scale 0 to 100 (0 no effect, 100 complete control)
[13] = Postemergence, 62 g ai/ha, scale 0 to 100 (0 no effect, 100 complete control)
[14] = Postemergence, 125 g ai/ha, scale 0 to 100, 0 no effect, 100 complete control
[15] = Postemergence, 250 g ai/ha, scale 0 to 100
[16] = Preemergence, 62 g ai/ha, scale of 0 to 100, 0 is no effect, 100 is complete control
[17] = Preemergence, 125 g ai/ha, scale 0 to 100, 0 no effect, 100 complete control
[18] = Preemergence, 250 g ai/ha, scale 0 to 100, 0 no effect, 100 complete control
[19] = Preemergence, 31 g ai/ha, scale of 0 to 100, 0 is no effect, 100 is complete control
[20] = 125 g ai/ha, 0 to 100 scale, 0 is no effect, 100 is complete control
[21] = 500 g ai/ha, visual rating on 0 to 100 scale (0 no effect, 100 complete control), approximately ten days
[22] = 125 g ai/ha, 0 to 100 scale where 0 is no effect and 100 is complete control
[23] = 500 g ai/ha, 0 to 100 scale (0 no effect, 100 complete control)
[24] = Postemergence, 125 g ai/ha, 0 to 100 scale, 0 is no effect, 100 is complete control
[25] = Preemergence, 125 g ai/ha, 0 to 100 scale where 0 is no effect and 100 is complete control
[26] = Preemergence, 500 g ai/ha, 0 to 100 scale (0 no effect, 100 complete control)

COc1nn(-c2cccc(F)c2)nc1Cc1ccnc(C(F)(F)F)c1 [Compound 139]
0: Plant response rating, Wheat [1, 16] | Plant response rating, Nutsedge, Yellow [5, 19] | Plant response rating, Nutsedge, Yellow [5, 16] | Plant response rating, Nutsedge, Yellow [5, 17]
85: Plant response rating, Galium [8, 17] | Plant response rating, Kochia [11, 12] | Plant response rating, Kochia [11, 13]
10: Plant response rating, Wheat [1, 12] | Plant response rating, Wheat [1, 13] | Plant response rating, Wheat [1, 17] | Plant response rating, Corn [4, 22] | Plant response rating, Nutsedge, Yellow [5, 12] | Plant response rating, Nutsedge, Yellow [5, 13] | Plant response rating, Nutsedge, Yellow [5, 14]
55: Plant response rating, Crabgrass, Large [2, 14]
100: Plant response rating, Crabgrass, Large [2, 19] | Plant response rating, Crabgrass, Large [2, 16] | Plant response rating, Crabgrass, Large [2, 17] | Plant response rating, Crabgrass, Large [2, 18] | Plant response rating, Johnsongrass [3, 17] | Plant response rating, Johnsongrass [3, 18] | Barnyardgrass plant response rating [6, 21] | Plant response rating, Barnyardgrass [6, 23] | Morningglory plant response rating ([9]; Postemergence, 500 g ai/ha) | Plant response rating, Pigweed [10, 17] | Plant response rating, Pigweed [10, 18] | Plant response rating, Kochia [11, 18]
80: Plant response rating, Crabgrass, Large [2, 15] | Plant response rating, Johnsongrass [3, 14] | Plant response rating, Johnsongrass [3, 15] | Plant response rating, Barnyardgrass [6, 22] | Plant response rating, Galium [8, 14] | Plant response rating, Galium [8, 15] | Plant response rating, Galium [8, 16] | Plant response rating, Morningglory [9, 24]
45: Plant response rating, Crabgrass, Large [2, 13] | Plant response rating, Johnsongrass [3, 16]
30: Plant response rating, Johnsongrass [3, 12] | Corn plant response rating [4, 20] | Plant response rating, Corn [4, 23] | Plant response rating, Ryegrass, Italian [7, 13] | Plant response rating, Ryegrass, Italian [7, 14]
50: Plant response rating, Johnsongrass [3, 13] | Corn plant response rating [4, 21] | Plant response rating, Morningglory [9, 25]
60: Plant response rating, Ryegrass, Italian [7, 16] | Plant response rating, Galium [8, 12]
20: Plant response rating, Wheat [1, 18]
90: Barnyardgrass plant response rating [6, 20] | Plant response rating, Ryegrass, Italian [7, 18] | Plant response rating, Kochia [11, 14] | Plant response rating, Kochia [11, 15] | Plant response rating, Kochia [11, 17]
95: Plant response rating, Galium [8, 18] | Plant response rating, Pigweed [10, 12]
25: Plant response rating, Nutsedge, Yellow [5, 15] | Plant response rating, Ryegrass, Italian [7, 12]
65: Plant response rating, Kochia [11, 19]
98: Plant response rating, Pigweed [10, 13] | Plant response rating, Pigweed [10, 14] | Plant response rating, Pigweed [10, 15] | Plant response rating, Pigweed [10, 19] | Plant response rating, Pigweed [10, 16]
35: Plant response rating, Ryegrass, Italian [7, 19]
5: Plant response rating, Nutsedge, Yellow [5, 18] | Plant response rating, Galium [8, 19]
40: Plant response rating, Wheat [1, 14] | Plant response rating, Wheat [1, 15] | Plant response rating, Crabgrass, Large [2, 12] | Plant response rating, Ryegrass, Italian [7, 15]
75: Plant response rating, Kochia [11, 16]
70: Plant response rating, Galium [8, 13] | Plant response rating, Morningglory [9, 26]
15: Plant response rating, Johnsongrass [3, 19]

Cc1nn(-c2ccnc(Cl)c2)nc1Cc1ccnc(C(F)(F)F)c1 [Compound 141]
85: Plant response rating, Galium [8, 12] | Plant response rating, Galium [8, 13] | Plant response rating, Kochia [11, 12]
80: Plant response rating, Crabgrass, Large [2, 14] | Barnyardgrass plant response rating [6, 20] | Plant response rating, Morningglory [9, 24]
50: Corn plant response rating [4, 21] | Plant response rating, Ryegrass, Italian [7, 14]
60: Plant response rating, Morningglory [9, 26]
10: Plant response rating, Wheat [1, 12] | Plant response rating, Johnsongrass [3, 12] | Plant response rating, Johnsongrass [3, 13] | Plant response rating, Nutsedge, Yellow [5, 13]
55: Plant response rating, Crabgrass, Large [2, 13]
20: Plant response rating, Wheat [1, 14] | Plant response rating, Wheat [1, 15] | Plant response rating, Crabgrass, Large [2, 12]
98: Plant response rating, Pigweed [10, 14] | Plant response rating, Pigweed [10, 15]
0: Plant response rating, Corn [4, 22] | Plant response rating, Nutsedge, Yellow [5, 12]
100: Plant response rating, Barnyardgrass [6, 23]
95: Plant response rating, Crabgrass, Large [2, 15] | Plant response rating, Pigweed [10, 12] | Plant response rating, Pigweed [10, 13]
15: Plant response rating, Wheat [1, 13] | Plant response rating, Johnsongrass [3, 14] | Plant response rating, Johnsongrass [3, 15] | Plant response rating, Nutsedge, Yellow [5, 14] | Plant response rating, Nutsedge, Yellow [5, 15] | Plant response rating, Ryegrass, Italian [7, 12]
90: Barnyardgrass plant response rating [6, 21] | Plant response rating, Galium [8, 14] | Plant response rating, Galium [8, 15] | Morningglory plant response rating ([9]; Postemergence, 500 g ai/ha) | Plant response rating, Kochia [11, 13] | Plant response rating, Kochia [11, 14] | Plant response rating, Kochia [11, 15]
40: Plant response rating, Barnyardgrass [6, 22]
70: Plant response rating, Ryegrass, Italian [7, 15]
30: Corn plant response rating [4, 20] | Plant response rating, Corn [4, 23] | Plant response rating, Ryegrass, Italian [7, 13] | Plant response rating, Morningglory [9, 25]

Cc1nn(-c2ccc(F)cc2F)nc1Oc1ccnc(C(F)(F)F)c1 [Compound 146]
85: Plant response rating, Pigweed [10, 19] | Plant response rating, Kochia [11, 17] | Plant response rating, Kochia [11, 18]
60: Plant response rating, Morningglory [9, 26]
98: Plant response rating, Crabgrass, Large [2, 19] | Plant response rating, Johnsongrass [3, 17]
0: Plant response rating, Wheat [1, 16] | Plant response rating, Wheat [1, 17] | Plant response rating, Corn [4, 22] | Plant response rating, Nutsedge, Yellow [5, 19] | Plant response rating, Nutsedge, Yellow [5, 16] | Plant response rating, Ryegrass, Italian [7, 19]
55: Plant response rating, Ryegrass, Italian [7, 17] | Plant response rating, Kochia [11, 16]
90: Barnyardgrass plant response rating [6, 21] | Plant response rating, Barnyardgrass [6, 22] | Plant response rating, Ryegrass, Italian [7, 18] | Plant response rating, Morningglory [9, 24] | Morningglory plant response rating ([9]; Postemergence, 500 g ai/ha) | Plant response rating, Pigweed [10, 16]
30: Barnyardgrass plant response rating [6, 20] | Plant response rating, Ryegrass, Italian [7, 16] | Plant response rating, Kochia [11, 19]
75: Plant response rating, Johnsongrass [3, 16]
95: Plant response rating, Galium [8, 19] | Plant response rating, Galium [8, 16] | Plant response rating, Galium [8, 17]
5: Plant response rating, Johnsongrass [3, 19]
100: Plant response rating, Crabgrass, Large [2, 16] | Plant response rating, Crabgrass, Large [2, 17] | Plant response rating, Crabgrass, Large [2, 18] | Plant response rating, Johnsongrass [3, 18] | Plant response rating, Barnyardgrass [6, 23] | Plant response rating, Galium [8, 18] | Plant response rating, Pigweed [10, 17] | Plant response rating, Pigweed [10, 18]
20: Corn plant response rating [4, 20]
80: Corn plant response rating [4, 21]
10: Plant response rating, Wheat [1, 18] | Plant response rating, Corn [4, 23] | Plant response rating, Nutsedge, Yellow [5, 18] | Plant response rating, Morningglory [9, 25]
